Test results reported in ChEMBL document CHEMBL3797029, “Purinylpyridinylamino-based DFG-in/αC-helix-out B-Raf inhibitors: Applying mutant versus wild-type B-Raf selectivity indices for compound profiling” (Bioorg Med Chem, 2016).

How the values were obtained:
[1] = target: Mitogen-activated protein kinase 10 (Homo sapiens) (UniProt P53779); assay: Inhibition of partial length wild type human JNK3 expressed in mammalian system assessed as enzyme activity at 1 uM relative to control; set-up: scale not given: the % may be the effect or the level left
[2] = target: Serine/threonine-protein kinase/endoribonuclease IRE1 (Homo sapiens) (UniProt O75460); assay: Inhibition of partial length wild type human ERN1 expressed in mammalian system assessed as enzyme activity at 1 uM relative to control; set-up: scale not given: the % may be the effect or the level left
[3] = target: Mitogen-activated protein kinase kinase kinase 19 (Homo sapiens) (UniProt Q56UN5); assay: Inhibition of partial length wild type human YSK4 expressed in mammalian system assessed as enzyme activity at 1 uM relative to control; set-up: scale not given: the % may be the effect or the level left
[4] = target: Mitogen-activated protein kinase 14 (Homo sapiens) (UniProt Q16539); assay: Inhibition of full length wild type human p38alpha expressed in bacterial system assessed as enzyme activity at 1 uM relative to control; set-up: scale not given: the % may be the effect or the level left
[5] = target: MAP/microtubule affinity-regulating kinase 3 (Homo sapiens) (UniProt P27448); assay: Inhibition of full length wild type human MARK3 expressed in bacterial system assessed as enzyme activity at 1 uM relative to control; set-up: scale not given: the % may be the effect or the level left
[6] = target: Phosphatidylinositol 4,5-bisphosphate 3-kinase catalytic subunit alpha isoform (Homo sapiens) (UniProt P42336); assay: Inhibition of partial length wild type human PIK3CA expressed in mammalian system assessed as enzyme activity at 1 uM relative to control; set-up: scale not given: the % may be the effect or the level left
[7] = target: Glycogen synthase kinase-3 beta (Homo sapiens) (UniProt P49841); assay: Inhibition of full length wild type human GSK3beta expressed in mammalian system assessed as enzyme activity at 1 uM relative to control; set-up: scale not given: the % may be the effect or the level left
[8] = target: Tyrosine-protein kinase ABL1 (Homo sapiens) (UniProt P00519); assay: Inhibition of partial length wild type nonphosphorylated human ABL1 expressed in mammalian system assessed as enzyme activity at 1 uM relative to control; set-up: scale not given: the % may be the effect or the level left
[9] = target: Bone morphogenetic protein receptor type-1A (Homo sapiens) (UniProt P36894); assay: Inhibition of partial length wild type human BMPR1A expressed in bacterial system assessed as enzyme activity at 1 uM relative to control; set-up: scale not given: the % may be the effect or the level left
[10] = target: Mitogen-activated protein kinase kinase kinase 1 (Homo sapiens) (UniProt Q13233); assay: Inhibition of partial length wild type human MAP3K1 expressed in mammalian system assessed as enzyme activity at 1 uM relative to control; set-up: scale not given: the % may be the effect or the level left
[11] = target: Serine/threonine-protein kinase B-raf (Homo sapiens, UniProt P15056, V600E); assay: Inhibition of B-Raf V600E mutant (unknown origin) assessed as MEK1 phosphorylation using MEK1-Avitag as substrate after 1 hr by HTRF assay
Serine/threonine-protein kinase B-raf, sequence (P15056 2-766 V600E limits assumed): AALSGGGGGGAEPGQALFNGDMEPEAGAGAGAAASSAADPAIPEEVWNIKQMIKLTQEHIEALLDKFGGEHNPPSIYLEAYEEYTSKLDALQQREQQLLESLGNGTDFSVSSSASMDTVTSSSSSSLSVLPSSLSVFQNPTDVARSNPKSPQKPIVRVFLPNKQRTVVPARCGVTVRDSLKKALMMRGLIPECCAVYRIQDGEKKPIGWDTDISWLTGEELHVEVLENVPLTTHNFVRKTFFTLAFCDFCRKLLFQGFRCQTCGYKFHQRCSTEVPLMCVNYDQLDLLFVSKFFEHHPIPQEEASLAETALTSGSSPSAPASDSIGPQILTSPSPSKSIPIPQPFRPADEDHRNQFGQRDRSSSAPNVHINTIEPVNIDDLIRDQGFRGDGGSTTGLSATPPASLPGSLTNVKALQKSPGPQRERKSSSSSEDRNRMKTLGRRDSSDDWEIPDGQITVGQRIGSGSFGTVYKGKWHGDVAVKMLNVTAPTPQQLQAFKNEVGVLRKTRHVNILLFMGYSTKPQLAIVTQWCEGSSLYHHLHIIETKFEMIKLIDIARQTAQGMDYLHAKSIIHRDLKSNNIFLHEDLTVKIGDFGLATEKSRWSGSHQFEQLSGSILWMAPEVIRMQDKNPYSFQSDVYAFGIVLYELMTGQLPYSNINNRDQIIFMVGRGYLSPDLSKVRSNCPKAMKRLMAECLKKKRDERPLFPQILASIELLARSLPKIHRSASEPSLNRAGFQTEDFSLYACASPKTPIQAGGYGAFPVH

[12] = target: Dual specificity protein kinase CLK1 (Homo sapiens) (UniProt P49759); assay: Inhibition of full length wild type human CLK1 expressed in bacterial system assessed as enzyme activity at 1 uM relative to control; set-up: scale not given: the % may be the effect or the level left
[13] = target: Protein-tyrosine kinase 6 (Homo sapiens) (UniProt Q13882); assay: Inhibition of partial length wild type human BRK expressed in bacterial system assessed as enzyme activity at 1 uM relative to control; set-up: scale not given: the % may be the effect or the level left
[14] = target: ALK tyrosine kinase receptor (Homo sapiens) (UniProt Q9UM73); assay: Inhibition of partial length wild type human ALK expressed in mammalian system assessed as enzyme activity at 1 uM relative to control; set-up: scale not given: the % may be the effect or the level left
[15] = target: Myotonin-protein kinase (Homo sapiens) (UniProt Q09013); assay: Inhibition of partial length wild type human DMPK expressed in bacterial system assessed as enzyme activity at 1 uM relative to control; set-up: scale not given: the % may be the effect or the level left
[16] = target: Mast/stem cell growth factor receptor Kit (Homo sapiens) (UniProt P10721); assay: Inhibition of partial length wild type human KIT expressed in bacterial system assessed as enzyme activity at 1 uM relative to control; set-up: scale not given: the % may be the effect or the level left
Mast/stem cell growth factor receptor Kit (Homo sapiens), sequence (P10721 whole entry): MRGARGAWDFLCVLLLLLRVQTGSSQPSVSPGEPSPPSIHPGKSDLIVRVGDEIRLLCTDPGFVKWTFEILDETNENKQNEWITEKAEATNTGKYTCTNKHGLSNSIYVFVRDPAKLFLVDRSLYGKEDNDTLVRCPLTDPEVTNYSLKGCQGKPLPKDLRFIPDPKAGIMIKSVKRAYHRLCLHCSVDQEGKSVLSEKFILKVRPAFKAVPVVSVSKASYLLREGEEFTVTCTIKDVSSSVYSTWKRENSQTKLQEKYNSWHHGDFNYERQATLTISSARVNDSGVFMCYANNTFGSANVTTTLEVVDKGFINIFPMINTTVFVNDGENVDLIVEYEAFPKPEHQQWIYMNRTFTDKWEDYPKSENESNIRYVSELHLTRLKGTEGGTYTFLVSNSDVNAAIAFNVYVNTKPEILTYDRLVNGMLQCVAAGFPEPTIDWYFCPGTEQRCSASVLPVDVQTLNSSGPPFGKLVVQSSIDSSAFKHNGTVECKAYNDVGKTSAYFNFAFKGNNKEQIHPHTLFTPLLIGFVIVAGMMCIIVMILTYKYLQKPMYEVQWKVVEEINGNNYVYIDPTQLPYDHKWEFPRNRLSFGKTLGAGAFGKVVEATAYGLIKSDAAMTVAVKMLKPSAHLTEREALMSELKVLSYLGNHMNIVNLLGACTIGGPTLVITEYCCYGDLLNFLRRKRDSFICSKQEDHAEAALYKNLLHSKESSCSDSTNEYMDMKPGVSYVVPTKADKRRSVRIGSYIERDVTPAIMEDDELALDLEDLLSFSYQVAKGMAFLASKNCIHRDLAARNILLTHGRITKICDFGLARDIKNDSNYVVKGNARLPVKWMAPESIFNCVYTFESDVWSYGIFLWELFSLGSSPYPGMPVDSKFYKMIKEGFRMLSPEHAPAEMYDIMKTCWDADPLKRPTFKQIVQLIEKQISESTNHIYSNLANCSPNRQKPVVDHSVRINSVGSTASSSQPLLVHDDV

[17] = target: Cyclin-G-associated kinase (Homo sapiens) (UniProt O14976); assay: Inhibition of partial length wild type human GAK expressed in bacterial system assessed as enzyme activity at 1 uM relative to control; set-up: scale not given: the % may be the effect or the level left
[18] = target: Serine/threonine-protein kinase Chk1 (Homo sapiens) (UniProt O14757); assay: Inhibition of partial length wild type human CHEK1 expressed in bacterial system assessed as enzyme activity at 1 uM relative to control; set-up: scale not given: the % may be the effect or the level left
[19] = target: Casein kinase I isoform delta (Homo sapiens) (UniProt P48730); assay: Inhibition of full length wild type human CSNK1D expressed in bacterial system assessed as enzyme activity at 1 uM relative to control; set-up: scale not given: the % may be the effect or the level left
Casein kinase I isoform delta (Homo sapiens), sequence (P48730 whole entry, looked up, canonical isoform): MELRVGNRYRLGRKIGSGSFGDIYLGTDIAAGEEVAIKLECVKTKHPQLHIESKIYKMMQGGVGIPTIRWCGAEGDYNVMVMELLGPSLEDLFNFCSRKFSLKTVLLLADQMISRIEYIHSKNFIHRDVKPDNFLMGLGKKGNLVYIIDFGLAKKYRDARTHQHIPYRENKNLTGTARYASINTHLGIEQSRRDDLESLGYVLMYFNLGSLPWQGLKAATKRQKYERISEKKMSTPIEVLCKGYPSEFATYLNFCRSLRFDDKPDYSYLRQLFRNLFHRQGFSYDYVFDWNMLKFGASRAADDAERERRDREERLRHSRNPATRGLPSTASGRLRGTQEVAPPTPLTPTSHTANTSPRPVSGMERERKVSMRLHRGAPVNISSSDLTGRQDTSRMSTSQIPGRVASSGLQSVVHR

[20] = target: Ephrin type-B receptor 3 (Homo sapiens) (UniProt P54753); assay: Inhibition of partial length wild type human EPHB3 expressed in bacterial system assessed as enzyme activity at 1 uM relative to control; set-up: scale not given: the % may be the effect or the level left
[21] = target: Serine/threonine-protein kinase MARK1 (Homo sapiens) (UniProt Q9P0L2); assay: Inhibition of partial length wild type human MARK1 expressed in bacterial system assessed as enzyme activity at 1 uM relative to control; set-up: scale not given: the % may be the effect or the level left
Serine/threonine-protein kinase MARK1 (Homo sapiens), sequence (Q9P0L2 whole entry, looked up): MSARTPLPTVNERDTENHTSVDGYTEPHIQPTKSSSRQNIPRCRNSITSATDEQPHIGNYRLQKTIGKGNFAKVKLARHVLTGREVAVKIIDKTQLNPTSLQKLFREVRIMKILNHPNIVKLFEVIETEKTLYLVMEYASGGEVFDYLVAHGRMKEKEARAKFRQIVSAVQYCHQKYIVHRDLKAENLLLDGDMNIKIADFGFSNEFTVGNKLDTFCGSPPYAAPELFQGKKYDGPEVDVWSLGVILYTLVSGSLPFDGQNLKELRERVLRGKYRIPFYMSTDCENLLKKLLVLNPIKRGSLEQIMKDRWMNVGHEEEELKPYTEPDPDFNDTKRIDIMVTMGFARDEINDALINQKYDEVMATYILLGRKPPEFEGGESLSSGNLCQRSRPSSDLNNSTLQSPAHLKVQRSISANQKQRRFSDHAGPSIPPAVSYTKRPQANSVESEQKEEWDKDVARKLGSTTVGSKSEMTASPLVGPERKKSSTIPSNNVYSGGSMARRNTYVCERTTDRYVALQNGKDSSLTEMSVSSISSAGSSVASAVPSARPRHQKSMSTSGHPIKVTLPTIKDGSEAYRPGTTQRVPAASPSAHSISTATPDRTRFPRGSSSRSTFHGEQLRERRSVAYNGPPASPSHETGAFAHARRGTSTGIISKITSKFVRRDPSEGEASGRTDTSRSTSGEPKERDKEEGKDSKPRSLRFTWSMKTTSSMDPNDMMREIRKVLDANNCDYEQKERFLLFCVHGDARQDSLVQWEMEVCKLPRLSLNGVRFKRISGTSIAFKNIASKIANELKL

[22] = target: Death-associated protein kinase 1 (Homo sapiens) (UniProt P53355); assay: Inhibition of partial length wild type human DAPK1 expressed in bacterial system assessed as enzyme activity at 1 uM relative to control; set-up: scale not given: the % may be the effect or the level left
[23] = target: Non-receptor tyrosine-protein kinase TYK2 (Homo sapiens) (UniProt P29597); assay: Inhibition of partial length wild type human TYK2 (catalytic JH1 domain) expressed in mammalian system assessed as enzyme activity at 1 uM relative to control; set-up: scale not given: the % may be the effect or the level left
[24] = target: Mitogen-activated protein kinase kinase kinase 7 (Homo sapiens) (UniProt O43318); assay: Inhibition of partial length wild type human TAK1 expressed in mammalian system assessed as enzyme activity at 1 uM relative to control; set-up: scale not given: the % may be the effect or the level left
Mitogen-activated protein kinase kinase kinase 7 (Homo sapiens), sequence (O43318 whole entry): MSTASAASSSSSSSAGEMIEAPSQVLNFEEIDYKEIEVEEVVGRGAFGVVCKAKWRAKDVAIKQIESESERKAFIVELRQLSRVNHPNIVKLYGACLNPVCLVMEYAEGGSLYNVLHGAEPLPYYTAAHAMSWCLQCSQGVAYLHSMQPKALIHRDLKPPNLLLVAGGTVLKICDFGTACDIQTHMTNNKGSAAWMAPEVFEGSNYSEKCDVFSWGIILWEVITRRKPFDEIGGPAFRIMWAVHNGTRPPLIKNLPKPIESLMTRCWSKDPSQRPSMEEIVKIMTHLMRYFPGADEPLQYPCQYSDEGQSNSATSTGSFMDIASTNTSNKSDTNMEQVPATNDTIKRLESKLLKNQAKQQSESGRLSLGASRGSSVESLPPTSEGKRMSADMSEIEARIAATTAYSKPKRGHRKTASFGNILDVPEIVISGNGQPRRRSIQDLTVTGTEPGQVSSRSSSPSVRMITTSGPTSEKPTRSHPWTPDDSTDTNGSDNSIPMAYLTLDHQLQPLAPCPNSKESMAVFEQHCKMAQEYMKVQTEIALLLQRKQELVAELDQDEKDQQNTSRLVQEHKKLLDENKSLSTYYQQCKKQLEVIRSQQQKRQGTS

[25] = target: MAP kinase-interacting serine/threonine-protein kinase 1 (Homo sapiens) (UniProt Q9BUB5); assay: Inhibition of full length wild type human MKNK1 expressed in mammalian system assessed as enzyme activity at 1 uM relative to control; set-up: scale not given: the % may be the effect or the level left
[26] = target: Insulin-like growth factor 1 receptor (Homo sapiens) (UniProt P08069); assay: Inhibition of partial length wild type human IGF1R expressed in bacterial system assessed as enzyme activity at 1 uM relative to control; set-up: scale not given: the % may be the effect or the level left
[27] = target: Protein kinase C epsilon type (Homo sapiens) (UniProt Q02156); assay: Inhibition of partial length wild type human PRKCE expressed in mammalian system assessed as enzyme activity at 1 uM relative to control; set-up: scale not given: the % may be the effect or the level left
[28] = target: Dual specificity mitogen-activated protein kinase kinase 3 (Homo sapiens) (UniProt P46734); assay: Inhibition of full length wild type human MEK3 expressed in mammalian system assessed as enzyme activity at 1 uM relative to control; set-up: scale not given: the % may be the effect or the level left
Dual specificity mitogen-activated protein kinase kinase 3 (Homo sapiens), sequence (P46734 whole entry): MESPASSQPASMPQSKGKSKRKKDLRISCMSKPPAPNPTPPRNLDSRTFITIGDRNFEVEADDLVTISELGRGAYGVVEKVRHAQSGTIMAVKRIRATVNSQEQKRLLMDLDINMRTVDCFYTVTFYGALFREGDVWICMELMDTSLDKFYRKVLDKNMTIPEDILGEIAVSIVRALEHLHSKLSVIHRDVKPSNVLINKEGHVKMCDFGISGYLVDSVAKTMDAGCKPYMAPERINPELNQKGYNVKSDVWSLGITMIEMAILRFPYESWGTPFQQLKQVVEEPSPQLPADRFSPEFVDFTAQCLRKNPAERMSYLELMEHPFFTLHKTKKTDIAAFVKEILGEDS

[29] = target: Ephrin type-A receptor 2 (Homo sapiens) (UniProt P29317); assay: Inhibition of partial length wild type human EPHA2 expressed in bacterial system assessed as enzyme activity at 1 uM relative to control; set-up: scale not given: the % may be the effect or the level left
Ephrin type-A receptor 2 (Homo sapiens), sequence (P29317 whole entry, the tested form may be a part): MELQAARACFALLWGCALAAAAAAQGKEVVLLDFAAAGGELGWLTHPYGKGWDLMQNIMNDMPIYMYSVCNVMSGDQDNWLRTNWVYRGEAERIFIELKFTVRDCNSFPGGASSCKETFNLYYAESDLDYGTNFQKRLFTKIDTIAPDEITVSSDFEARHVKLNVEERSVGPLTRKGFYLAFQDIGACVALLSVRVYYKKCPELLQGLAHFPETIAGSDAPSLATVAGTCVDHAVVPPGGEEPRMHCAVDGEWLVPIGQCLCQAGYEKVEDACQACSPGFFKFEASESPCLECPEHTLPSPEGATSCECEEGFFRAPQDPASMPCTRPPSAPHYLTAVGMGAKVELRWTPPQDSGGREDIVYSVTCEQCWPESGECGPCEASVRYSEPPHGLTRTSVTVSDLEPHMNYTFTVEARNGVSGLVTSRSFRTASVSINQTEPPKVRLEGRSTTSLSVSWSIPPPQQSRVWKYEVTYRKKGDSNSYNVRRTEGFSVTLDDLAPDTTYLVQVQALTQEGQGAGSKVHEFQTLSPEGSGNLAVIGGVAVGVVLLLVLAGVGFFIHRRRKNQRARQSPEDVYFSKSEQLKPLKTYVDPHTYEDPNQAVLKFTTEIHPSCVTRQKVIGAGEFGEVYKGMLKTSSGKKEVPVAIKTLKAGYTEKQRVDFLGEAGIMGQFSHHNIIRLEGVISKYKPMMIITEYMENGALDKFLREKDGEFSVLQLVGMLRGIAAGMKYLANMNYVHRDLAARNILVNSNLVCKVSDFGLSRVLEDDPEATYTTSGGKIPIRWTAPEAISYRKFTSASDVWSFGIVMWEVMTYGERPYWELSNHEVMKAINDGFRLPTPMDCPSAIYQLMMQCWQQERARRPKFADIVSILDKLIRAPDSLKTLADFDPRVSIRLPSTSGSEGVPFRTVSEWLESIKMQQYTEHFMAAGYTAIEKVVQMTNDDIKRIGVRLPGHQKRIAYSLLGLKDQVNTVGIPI

[30] = target: LIM domain kinase 1 (Homo sapiens) (UniProt P53667); assay: Inhibition of full length wild type human LIMK1 expressed in bacterial system assessed as enzyme activity at 1 uM relative to control; set-up: scale not given: the % may be the effect or the level left
[31] = target: Cyclin-dependent kinase 18 (Homo sapiens) (UniProt Q07002); assay: Inhibition of full length wild type human PCTK3 expressed in bacterial system assessed as enzyme activity at 1 uM relative to control; set-up: scale not given: the % may be the effect or the level left
[32] = test system: cAMP-dependent protein kinase catalytic subunit alpha; assay: Inhibition of partial length wild type human PKACalpha expressed in bacterial system assessed as enzyme activity at 1 uM relative to control; set-up: scale not given: the % may be the effect or the level left

Activity [1]: 89%
Activity [2]: 100%
Activity [3]: 63%
Activity [4]: 91%
Activity [5]: 87%
Activity [6]: 100%
Activity [7]: 100%
Activity [8]: 96%
Activity [9]: 63%
Activity [10]: 83%
IC50 [11]: 8 nM
Activity [12]: 90%
Activity [13]: 14%
Activity [14]: 96%
Activity [15]: 100%
Activity [16]: 68%
Activity [17]: 78%
Activity [18]: 86%
Activity [19]: 83%
Activity [20]: 94%
Activity [21]: 100%
Activity [23]: 100%
Activity [24]: 70%
Activity [25]: 77%
Activity [26]: 98%
Activity [27]: 87%
Activity [28]: 100%
Activity [29]: 74%
Activity [30]: 57%
Activity [31]: 89%
Activity [32]: 94%
SMILES: CN(C)S(=O)(=O)Nc1ccc(F)c(Nc2ncccc2-c2ncnc3[nH]cnc23)c1F
Activity [22]: 100%
